This is an account of results in ChEMBL document CHEMBL1131554, “10-omega-phenylalkyl-9(10H)-anthracenones as inhibitors of keratinocyte growth with reduced membrane damaging properties” (Bioorg Med Chem Lett, 1998).

Data set [1] is described as follows: Compound was measured for lactate dehydrogenase (LDH) release in HaCaT cells after treatment with 2 uM. The data set is classed as functional, Homo sapiens.
Data set [2] is described as follows: In vitro for antiproliferate activity against HaCaT cells. The data set is classed as functional, cell-based. Conditions: Homo sapiens.
The nature of data set [3]: Deoxyribose degradation as a measure of hydroxyl-radical generation. It counts as functional.
Data set [4] is described as follows: Partition coefficient (logP). It counts as physicochemical. Conditions: octanol/water.

In data set [1], `O=C1c2c(O)cccc2C(CCc2cc(O)c(O)c(O)c2)c2cccc(O)c21` displayed an LDH of 225 MU. In data set [2], the IC50 is over 5 µM. The compound also displayed an Activity (uM of MDA (mM of deoxyribose)-1) in data set [3] of 2.3. In addition, the log partition coefficient (logP) in data set [4] amounted to 3.09.

For `COc1ccc(CCC2c3cccc(O)c3C(=O)c3c(O)cccc32)cc1OC`, half-maximal inhibition in data set [2] (IC50) was put at 3 µM. The compound also gave an Activity (uM of MDA (mM of deoxyribose)-1) in data set [3] of under 0.2. Further, the lipophilicity (logP) in data set [4] is 4.55.

In data set [1], `O=C1c2c(O)cccc2C(CCCc2ccccc2)c2cccc(O)c21` showed an LDH of 130 MU. In data set [2], the IC50 was over 5 µM. In data set [3], this compound came in with an Activity (uM of MDA (mM of deoxyribose)-1) of under 0.2. In addition, the logP in data set [4] was 5.51.

For the compound `O=C1c2c(O)cccc2Cc2cccc(O)c21` [ANTHRALIN], the LDH in data set [1] is 294 MU. The same compound returned a half-inhibitory concentration (IC50) in data set [2] of 0.7 µM.

`COc1ccc(CCC2c3cccc(O)c3C(=O)c3c(O)cccc32)cc1` returned an LDH in data set [1] of 129 MU. Besides, inhibition in data set [2] was half-maximal at 0.9 µM (IC50). The Activity (uM of MDA (mM of deoxyribose)-1) in data set [3] was under 0.2. Besides, the logP in data set [4] is 5.07.

The compound `O=C1c2c(O)cccc2C(CCc2ccccc2)c2cccc(O)c21` came in with an IC50 in data set [2] of under 5 µM. This compound yielded an Activity (uM of MDA (mM of deoxyribose)-1) in data set [3] of under 0.2. The logP in data set [4] amounted to 5.27.

In data set [2], `COc1cc(CCC2c3cccc(O)c3C(=O)c3c(O)cccc32)cc(OC)c1OC` showed an IC50 of 4.1 µM. In addition, in data set [3], the Activity (uM of MDA (mM of deoxyribose)-1) is 0.97. The same compound registered a logP in data set [4] of 4.37.

With `O=C1c2c(O)cccc2C(Cc2ccccc2)c2cccc(O)c21`, in data set [1], the LDH worked out at 150 MU. Further, in data set [2], the IC50 was over 5 µM. In addition, the Activity (uM of MDA (mM of deoxyribose)-1) in data set [3] stood at 0.35.

In turn, `COc1ccc(CC2c3cccc(O)c3C(=O)c3c(O)cccc32)cc1` yielded an LDH in data set [1] of 152 MU. For the same compound, the IC50 in data set [2] was over 5 µM. This compound displayed an Activity (uM of MDA (mM of deoxyribose)-1) in data set [3] of under 0.2. This compound had a log partition coefficient (logP) in data set [4] of 4.45.

As to `COc1ccc(CC(=O)C2c3cccc(O)c3C(=O)c3c(O)cccc32)cc1`, in data set [1], the LDH is on record as 143 MU. Further, the IC50 in data set [2] came out at 1.1 µM. For the same compound, the Activity (uM of MDA (mM of deoxyribose)-1) in data set [3] is under 0.2. Besides, the logP in data set [4] was determined as 4.2.

Consider `O=C1c2c(O)cccc2C(Cc2ccncc2)c2cccc(O)c21`, for which the LDH in data set [1] is 179 MU. The compound also yielded an IC50 in data set [2] of 1.8 µM. This compound returned an Activity (uM of MDA (mM of deoxyribose)-1) in data set [3] of 1.25. In data set [4], the logP was 3.47.

Turning to `O=C1c2c(O)cccc2C(CCc2ccc(O)cc2)c2cccc(O)c21`, in data set [1], the LDH is reported as 136 MU. In data set [2], this compound displayed an IC50 of 3.8 µM. This compound also came in with an Activity (uM of MDA (mM of deoxyribose)-1) in data set [3] of 0.4. This compound came in with a logP in data set [4] of 4.1.

As for `O=C1c2c(O)cccc2C(CCCCc2ccccc2)c2cccc(O)c21`, the IC50 in data set [2] was under 5 µM. For the same compound, in data set [3], the Activity (uM of MDA (mM of deoxyribose)-1) is under 0.2. Also, the logP in data set [4] was 5.72.

With `O=C1c2c(O)cccc2C(Cc2ccc([N+](=O)[O-])cc2)c2cccc(O)c21`, in data set [1], the LDH is listed as 142 MU. Besides, the IC50 in data set [2] was under 5 µM. The compound further returned an Activity (uM of MDA (mM of deoxyribose)-1) in data set [3] of under 0.2. The same compound came in with a logP in data set [4] of 4.16.

On to `O=C1c2c(O)cccc2C(CCc2ccc(O)c(O)c2)c2cccc(O)c21`, for which the IC50 in data set [2] is over 5 µM. In data set [3], the Activity (uM of MDA (mM of deoxyribose)-1) was determined as 0.56. The compound also displayed a logP in data set [4] of 3.65.

The term IC50 denotes the point on the concentration scale where inhibition reaches its midpoint. In general, logP refers to a log measure of how a compound divides between an organic and an aqueous phase. A high value points to higher lipophilicity.
